Experimental data taken from patent US20220282271A1, “HERBICIDE RESISTANT PLANTS AND METHODS OF MAKING AND USING” (OFFICE OF INNOVATION ADVANCEMENT AND COMMERCIALIZATION, priority 2019, published 2022).

Assays:
Physalis angulata = experiment: Weed control screen: cutleaf groundcherry; assay type: in vivo; conditions: 1.0 lb ai/a, applied approximately 3 weeks after emergence, relative to non-treated
Protocol: (§1) Herbicides were applied at a spray volume of 280 L/ha with no adjuvant added to any herbicide mixture. Weed control was rated on a 0 to 100 percent phytoxicity scale with 0 being no plant injury/phytotoxicity and 100 being complete plant dessication. Twenty-one weeds were evaluated for response to herbicides (Table 3). The weeds selected were a mixture of weeds common in agronomic and horticultural crops. Herbicide was applied to all species approximately 3 weeks after emergence. Plant phytotoxicity rated as percent control relative to the non-treated.

Jaquemontia tamnifolia = experiment: Weed control screen: smallflower morningglory; assay type: in vivo; conditions: 1.0 lb ai/a, applied approximately 3 weeks after emergence, relative to non-treated
Protocol: as §1

Ipomoea coccinea = experiment: Weed control screen: red morningglory; assay type: in vivo; conditions: 1.0 lb ai/a, applied approximately 3 weeks after emergence, relative to non-treated
Protocol: as §1

Amaranthus palmeri = experiment: Weed control screen: glyphosate resistant palmer amaranth; assay type: in vivo; conditions: 1.0 lb ai/a, applied approximately 3 weeks after emergence, relative to non-treated
Protocol: as §1

Cyperus iria = experiment: Weed control screen: rice flatsedge; assay type: in vivo; conditions: 1.0 lb ai/a, applied approximately 3 weeks after emergence, relative to non-treated
Protocol: as §1

[1] = molecular target: T1, recombinant wild-type E. indica PPO1 (Eleusine indica, UniProt A0A6G5XNV7); experiment: In vitro PPO enzyme activity inhibition, wild-type PPO1; assay type: biochemical
T1 sequence (A0A6G5XNV7 1-529): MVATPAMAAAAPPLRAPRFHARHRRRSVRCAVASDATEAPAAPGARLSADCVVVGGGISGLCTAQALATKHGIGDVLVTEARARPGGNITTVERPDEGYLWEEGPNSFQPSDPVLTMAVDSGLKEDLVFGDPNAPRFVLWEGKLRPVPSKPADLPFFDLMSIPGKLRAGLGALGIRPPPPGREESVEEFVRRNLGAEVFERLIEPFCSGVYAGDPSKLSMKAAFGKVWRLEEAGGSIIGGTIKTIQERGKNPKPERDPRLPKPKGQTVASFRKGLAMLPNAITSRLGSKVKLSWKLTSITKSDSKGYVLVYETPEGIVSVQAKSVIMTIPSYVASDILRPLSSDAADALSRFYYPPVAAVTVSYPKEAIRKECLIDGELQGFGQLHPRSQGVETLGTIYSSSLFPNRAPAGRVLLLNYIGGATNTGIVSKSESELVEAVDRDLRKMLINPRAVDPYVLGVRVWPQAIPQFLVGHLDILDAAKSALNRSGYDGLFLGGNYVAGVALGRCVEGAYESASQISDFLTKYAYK
Source text: Effects of A212T substitution were studied using the E. indica backbone. The wild-type E. indica PPO1 and the E. indica PPO1 A212T variants were synthesized de novo and subcloned into pRSetB plasmid (Invitrogen, Carlsbad, Calif.). The complete description of expression and purification of E. indica PPO1 and E. indica PPO1 A212T variant proteins were referenced to the method described for PPO2 by Rangani et al. (2019, Frontiers in Plant Sci., 10:568). […] Oxadiazon, sulfentrazone, saflufenacil and lactofen are from the class of oxadiazole, triazolinone, pyrimidinedione, and diphenyl ether, respectively. Flumioxazin and trifludimoxazin are from the same chemical family, N-phenylphthalimide. […] The assay was replicated twice.

Amaranthus hybridus = experiment: Weed control screen: smooth pigweed; assay type: in vivo; conditions: 1.0 lb ai/a, applied approximately 3 weeks after emergence, relative to non-treated
Protocol: as §1

Kyllinga squamulata = experiment: Weed control screen: cock's comb kyllinga; assay type: in vivo; conditions: 1.0 lb ai/a, applied approximately 3 weeks after emergence, relative to non-treated
Protocol: as §1

Senna obtusifolia = experiment: Weed control screen: sicklepod; assay type: in vivo; conditions: 1.0 lb ai/a, applied approximately 3 weeks after emergence, relative to non-treated
Protocol: as §1

Albizia julibrissin = experiment: Weed control screen: silktree; assay type: in vivo; conditions: 1.0 lb ai/a, applied approximately 3 weeks after emergence, relative to non-treated
Protocol: as §1

[2] = highest herbicide concentration 10^−5 M

## CC(C)Oc1cc(-n2nc(C(C)(C)C)oc2=O)c(Cl)cc1Cl [Oxadiazon, oxadiazon]
Physalis angulata
  Percent control (0 to 100): 70%
Jaquemontia tamnifolia
  Percent control (0 to 100): 90%
Ipomoea coccinea
  Percent control (0 to 100): 100%
Amaranthus palmeri
  Percent control (0 to 100): 75%
Cyperus iria
  Percent control (0 to 100): 60%
[1]
  IC50: 24.7 nM
[1]; [2]
  Wild-type E. indica PPO1 % inhibition: >90%
  inhibition at 10 µM: > 90%
Amaranthus hybridus
  Percent control (0 to 100): 100%
Kyllinga squamulata
  Percent control (0 to 100): 75%
Senna obtusifolia
  Percent control (0 to 100): 90%
Albizia julibrissin
  Percent control (0 to 100): 50%
